Laboratory results from publication PMC8264259, “A Novel Ruthenium(II) Complex With Lapachol Induces G2/M Phase Arrest Through Aurora-B Kinase Down-Regulation and ROS-Mediated Apoptosis in Human Prostate Adenocarcinoma Cells” (Frontiers in Oncology, 2021).

Assays:
Type in all cases: cell-based, human
[1] = test system: DU-145 cells; assay: Cell cycle analysis (PI, flow cytometry); details: DU-145, 0.25-1.5 μM, 24 h
Method: DNA staining was performed using BD Cycletest™ Plus DNA Kit (BD Biosciences, USA) according to the manufacturer’s instructions. Briefly, DU-145 cells were seeded (5.0 × 10^4 cells/well) into 24-well culture plates and maintained to attach at 37°C in 5% CO2. After 24 h, the culture medium was replaced by complete culture medium containing 0.25, 0.5, 1.0, and 1.5 μM of complex (2). DMSO (0.1% v/v) was used as the vehicle control. Then, after 24 h treatment, the cells were harvested and fixed with 70% ethanol at 4°C for 1 h. Cells were incubated with 0.1 mg/ml RNase and 0.5 mg/ml propidium iodide (PI) for 10 min. Samples were then filtered using 50-µm nylon mesh and the FACSCanto flow cytometer (Becton Dickinson, Franklin Lakes, NJ, USA) was used to analyze the DNA histogram. Data from 10,000 cells were acquired and analyzed using the ModFit software (BD Biosciences, USA). The results were expressed as percentage of cells in each cell cycle phase (G1, S, and G2/M).

[2] = test system: Aurora-B; assay: Western blot, Aurora-B expression; details: DU-145, increasing concentrations (0.25-1.5 μM), 24 h
Method: Briefly, DU-145 cells were seeded (1.0 × 10^6 cells/well) into six-well plates and maintained to attach at 37°C in 5% CO2. After 24 h, cells were treated with 0.25, 0.50, 1.0, and 1.5 μM of complex (2). DMSO (0.1% v/v) was used as the vehicle control. After 24 h of incubation, cells were collected and suspended in Western blotting lysis buffer (20 mM Tris-HCl pH 7.4, 150 mM NaCl, 1 mM EDTA, and phosphatase and protease inhibitors). Cell lysates were centrifuged at 11,000g for 15 min at 4 °C, and supernatant was collected. Protein concentrations were quantified using the BCA Protein Assay Kit® (Thermo Fischer Scientific), according to the manufacturer’s instructions. For immunoblotting, equal amounts (30 μg) of total protein were electrophoresed in a NuPAGE® 4-12% Bis-Tris gel and transferred to an Invitrolon™ polyvinylidene difluoride (PVDF) membrane (Novex®, Thermo Fischer Scientific) at 100 V for 1 h. PVDF-membrane was washed two times (5 min each) with Tris-buffered saline plus Tween 20 (TBST, Sigma-Aldrich) and blocked in 5% non-fat milk in phosphate buffered saline with Tween®20 (PBST, Sigma-Aldrich) for 1 h at room temperature. […]

[3] = test system: PNT-2 cells; assay: Comet assay, PNT-2
Method: The comet assay was performed to evaluate DNA damage following the method described by ([37]). Briefly, DU-145 and PNT-2 cells were seeded (1.0 × 10^5 cells/well) in 24-well plates and maintained to attach at 37°C in 5% CO2 for 24 h. After, cells were treated with different concentrations of complex (2) for 24 h. DMSO (0.1% v/v) was used as the vehicle control and methyl methanesulfonate (150 μM, Sigma-Aldrich) as DNA damage inducer. Following 24 h of incubation, the cells were collected, and cell viability assay was performed using trypan blue dye. […] Then, cells were mixed with UltraPure™ Low-Melting-Point Agarose (0.5%, Invitrogen®), and added on pre-coated slides with UltraPure™ Agarose (1.5%, Invitrogen®). After agarose solidification, the slides were immersed in a lysis solution (2.5 M NaCl, 100 mM EDTA, 10 mM Tris, 10% DMSO, 1% Triton X-100, pH 10.4) for 18 h at 4°C. […] The nucleoids were identified in a fluorescence microscope (AxioStar Plus, Carl Zeiss Axio Cam MRc-AxioVision 3.1) using a 516 to 560 nm filter, 590 nm filter barrier, in 20× objective with an integrated digital camera. For each treatment, 100 random nucleoids were analyzed, and the tail fluorescence was measured through the Comet Assay IV™ imaging system (Perceptive Instruments^©, Bury St Edmunds, England).

CC(C)=CCC1=C([O-])C(=O)c2ccccc2C1=O.F[P-](F)(F)(F)(F)F.[Ru+2].c1ccc(P(CP(c2ccccc2)c2ccccc2)c2ccccc2)cc1.c1cnc2c(c1)ccc1cccnc12 [complex (2), [Ru(Lap)(dppm)(phen)]PF6]
cell cycle distribution [1]: increased cell number at the G2/M phase | Aurora-B protein levels [2]: downregulated | DNA damage (comet tail intensity) ([3]; PNT-2, maximum tested concentration 6.0 μM (~IC50), 24 h): increase in DNA damage | DNA damage (comet tail intensity) ([3]; PNT-2 prostate normal cells, same concentrations as DU-145, 24 h): no DNA damage
